Read-outs that look alike come from different tables or passages of the source.
Legend:
hsEH = conditions: training set, Table S1; ref reference publication (DOI) of Table S1; cited from earlier work
rat sEH (rsEH) = biological target: T1, rat sEH (rsEH) (Rattus norvegicus, UniProt P80299); assay: fluorescence-based sEH IC50 assay (CMNPC substrate); format: biochemical; conditions: experimental
T1 sequence (P80299 1-554): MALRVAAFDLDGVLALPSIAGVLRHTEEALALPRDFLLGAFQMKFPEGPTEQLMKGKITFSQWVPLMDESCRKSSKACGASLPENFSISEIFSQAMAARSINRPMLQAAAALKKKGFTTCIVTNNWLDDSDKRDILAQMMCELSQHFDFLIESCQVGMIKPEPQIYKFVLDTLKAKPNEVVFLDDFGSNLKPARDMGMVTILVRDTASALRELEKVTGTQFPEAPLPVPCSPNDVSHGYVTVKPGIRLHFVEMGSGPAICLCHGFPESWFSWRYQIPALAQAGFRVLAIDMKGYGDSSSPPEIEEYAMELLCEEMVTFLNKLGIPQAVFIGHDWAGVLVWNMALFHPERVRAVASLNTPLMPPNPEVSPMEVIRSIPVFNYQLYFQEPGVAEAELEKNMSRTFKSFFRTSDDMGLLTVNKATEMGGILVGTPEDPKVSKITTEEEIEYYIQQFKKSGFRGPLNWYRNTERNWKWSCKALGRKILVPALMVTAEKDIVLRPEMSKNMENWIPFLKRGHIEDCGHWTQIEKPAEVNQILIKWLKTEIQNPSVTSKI
Method: (§1) The IC50 values of the 18 compounds selected from the log P + HB and QE + R3 pharmacophore ranking were determined using a fluorescence-based assay[68] with either purified recombinant hsEH, mouse sEH (msEH), or rat sEH (rsEH). The enzyme was incubated at 30 °C with the inhibitors ([I]final = 0.4–50,000 nM) for 5 min in 100 mM sodium phosphate buffer (200 μL, pH 7.4) containing 0.1 mg/mL of […] (BSA) and 1% dimethyl sulfoxide (DMSO). The substrate (cyano(6-methoxynaphthalen-2-yl)methyl((3-phenyloxiran-2-yl)methyl)carbonate; CMNPC) was then added ([S]final = 5 μM). The activity was assessed by measuring the appearance of the fluorescent 6-methoxynaphthaldehyde product (λex = 330 nm, λem = 465 nm) every 30 s for 10 min at 30 °C on a SpectraMax M2 (Molecular Devices, CA). The results were obtained by regression analysis from a linear region of the curve.

mouse sEH (msEH) = biological target: T2, mouse sEH (msEH) (Mus musculus, UniProt P34914); assay: as above; format: biochemical; conditions: experimental
T2 sequence (P34914 1-554): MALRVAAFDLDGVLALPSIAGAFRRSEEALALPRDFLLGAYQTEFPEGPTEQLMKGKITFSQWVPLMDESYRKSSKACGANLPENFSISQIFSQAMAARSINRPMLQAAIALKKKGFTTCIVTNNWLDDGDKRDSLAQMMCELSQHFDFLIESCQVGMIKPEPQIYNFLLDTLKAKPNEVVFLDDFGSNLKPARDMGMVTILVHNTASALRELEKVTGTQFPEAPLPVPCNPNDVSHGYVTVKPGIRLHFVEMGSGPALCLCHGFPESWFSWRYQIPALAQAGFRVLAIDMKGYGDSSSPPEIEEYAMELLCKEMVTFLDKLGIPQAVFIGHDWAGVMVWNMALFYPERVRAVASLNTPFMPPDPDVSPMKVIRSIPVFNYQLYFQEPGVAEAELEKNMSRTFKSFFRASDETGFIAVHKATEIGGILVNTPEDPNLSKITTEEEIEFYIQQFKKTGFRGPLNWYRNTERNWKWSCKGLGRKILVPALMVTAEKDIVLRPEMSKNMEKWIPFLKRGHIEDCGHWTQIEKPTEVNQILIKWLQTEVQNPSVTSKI
Method: as §1

[1] = biological target: T3, purified recombinant hsEH (Homo sapiens, UniProt P34913); assay: as above; format: biochemical
T3 sequence (P34913 1-555): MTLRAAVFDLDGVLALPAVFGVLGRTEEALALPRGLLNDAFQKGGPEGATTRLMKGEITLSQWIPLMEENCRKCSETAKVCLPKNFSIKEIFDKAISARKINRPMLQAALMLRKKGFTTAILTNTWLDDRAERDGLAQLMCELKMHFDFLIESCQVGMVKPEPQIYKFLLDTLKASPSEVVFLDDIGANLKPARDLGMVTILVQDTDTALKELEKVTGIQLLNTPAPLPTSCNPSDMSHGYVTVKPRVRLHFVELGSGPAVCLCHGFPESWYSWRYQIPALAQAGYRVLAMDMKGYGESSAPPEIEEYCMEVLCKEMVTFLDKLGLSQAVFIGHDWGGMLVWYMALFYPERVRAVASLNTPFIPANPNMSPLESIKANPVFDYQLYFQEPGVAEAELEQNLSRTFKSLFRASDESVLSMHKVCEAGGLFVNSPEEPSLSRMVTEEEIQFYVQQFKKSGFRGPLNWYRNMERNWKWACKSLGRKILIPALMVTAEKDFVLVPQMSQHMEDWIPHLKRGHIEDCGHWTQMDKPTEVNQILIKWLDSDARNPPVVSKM
Method: as §1

[2] = experimental, human sEH, read-out: pIC50 hsEH (converted)

Row | Compound | IC50 (rat sEH (rsEH)) [nM] | IC50 (mouse sEH (msEH)) [nM] | IC50 [1, 2] [nM] | also measured
1 | O=C(NC1CCC(Oc2ccc(C(=O)O)cc2)CC1)NC12CC3CC(CC(C3)C1)C2 (stereo not drawn) [TR_mol5, 4-[(trans-4-{[(3s,5s,7s)-tricyclo[3.3.1.1∼3,7∼]dec-1-ylcarbamoyl]amino}cyclohexyl)oxy]benzoic acid] | – | – | – | pIC50 (hsEH): 8.9
2 | CC(NC(=O)NCc1ccc(N2CCCC2=O)cc1)c1cccc(Cl)c1 (stereo not shown) [Z211852480, CC(NC(=O)NCc1ccc(N2CCCC2=O)cc1)c1cccc(Cl)c1] | 501 | 631 | 126 | –
3 | O=C(NNC(=O)c1ccc(COc2ccccc2)cc1)NC12CC3CC(CC(C3)C1)C2 [Z44611499, O=C(NNC(=O)c1ccc(COc2ccccc2)cc1)NC12CC3CC(CC(C3)C1)C2] | 20 | 126 | 6.31 | IC50 ([1]; human enzyme, read-out: IC50 hsEH): < 20 nM
4 | O=C(Nc1ccc2c(c1)-c1ccccc1S2(=O)=O)N1CCC(F)(F)CC1 [TR_mol15, N-(5,5-dioxodibenzothiophen-2-yl)-4,4-difluoro-piperidine-1-carboxamide] | – | – | – | pIC50 (hsEH): 7.8
5 | O=C(NCCC(=O)N1CCN(S(=O)(=O)c2ccccc2F)CC1)NC12CC3CC(CC(C3)C1)C2 [Z29532165, O=C(NCCC(=O)N1CCN(S(=O)(=O)c2ccccc2F)CC1)NC12CC3CC(CC(C3)C1)C2] | 39.8 | 398 | 501 | –
6 | O=C(O)CCCNC(=O)NC1CCCCC1 [TR_mol23] | – | – | – | pIC50 (hsEH): 3.3
7 | Cc1ccc(C(C)C)c(OCc2ccc(C(=O)NNC(=O)NC34CC5CC(CC(C5)C3)C4)o2)c1 [AK-968/15603026, Cc1ccc(C(C)C)c(OCc2ccc(C(=O)NNC(=O)NC34CC5CC(CC(C5)C3)C4)o2)c1] | 39.8 | 316 | 126 | –
8 | O=C(CSc1nc(-c2ccccc2)cn1-c1ccccc1)NC(=O)Nc1ccccc1 [AO-476/43362680, O=C(CSc1nc(-c2ccccc2)cn1-c1ccccc1)NC(=O)Nc1ccccc1] | 25100 | 25100 | 3980 | –
9 | O=C(N/N=C/c1c2ccccc2cc2ccccc12)NC12CC3CC(CC(C3)C1)C2 [AK-968/40204236, O=C(N/N=C/c1c2ccccc2cc2ccccc12)NC12CC3CC(CC(C3)C1)C2] | – | – | – | pIC50 rsEH (rat sEH (rsEH)): 6.5; pIC50 msEH (mouse sEH (msEH)): 5.8
10 | CC1CCCCC1OCCNC(=O)Nc1cccc(OCc2ccccn2)c1 (stereo not shown) [Z416144030, CC1CCCCC1OCCNC(=O)Nc1cccc(OCc2ccccn2)c1] | 20 | 200 | 15.8 | –
11 | O=C(NC[C@H]1COc2ccccc2O1)c1ccc2c(c1)N(Cc1cccc(Cl)c1)C(=O)CS2 [TR_mol17, 4-[(3-chlorophenyl)methyl]-N-[[(3S)-2,3-dihydro-1,4-benzodioxin-3-yl]methyl]-3-oxidanylidene-1,4-benzothiazine-6-carboxamide] | – | – | – | pIC50 (hsEH): 7.5
12 | CC1CCC(NC(=O)Nc2cccc(Cn3nc4ccccn4c3=O)c2)CC1 (stereo not shown) [Z436130862, CC1CCC(NC(=O)Nc2cccc(Cn3nc4ccccn4c3=O)c2)CC1] | 1 | 1 | 0.794 | IC50 hsEH ([1]; human enzyme): subnanomolar
13 | CC(C(=O)NC(=O)NC12CC3CC(CC(C3)C1)C2)N1CCN(C(=O)C2COc3ccccc3O2)CC1 (stereo not shown) [Z65159029, CC(C(=O)NC(=O)NC12CC3CC(CC(C3)C1)C2)N1CCN(C(=O)C2COc3ccccc3O2)CC1] | 2000 | 20000 | 5010 | –
14 | CC(C)N1CCC(NC(=O)NCCC(c2ccccc2)c2ccccc2)CC1 [Z339670416, CC(C)N1CCC(NC(=O)NCCC(c2ccccc2)c2ccccc2)CC1] | 501 | 1580 | 100 | –
15 | O=C(COC(=O)c1ccc(N2CCCC2=O)cc1)NC(=O)NC12CC3CC(CC(C3)C1)C2 [Z23294293, O=C(COC(=O)c1ccc(N2CCCC2=O)cc1)NC(=O)NC12CC3CC(CC(C3)C1)C2] | 39.8 | 631 | 100 | –
16 | O=C(NCCC(c1ccccc1)c1ccccc1)NC1CCCCC1 [AK-968/41927527, O=C(NCCC(c1ccccc1)c1ccccc1)NC1CCCCC1] | 0.398 | 1.26 | 0.398 | IC50 hsEH ([1]; human enzyme): subnanomolar
17 | O=C(O)CCCCCNC(=O)NC1CCCCC1 [TR_mol33] | – | – | – | pIC50 (hsEH): 3.6
18 | O=C(NCc1ccc(-c2nc3ccccc3s2)o1)NC1CCCC(C(F)(F)F)C1 (stereo not shown) [Z353003074, O=C(NCc1ccc(-c2nc3ccccc3s2)o1)NC1CCCC(C(F)(F)F)C1] | 5.01 | 10 | 6.31 | –
19 | O=C(NCc1ccc(N2CCCC2=O)cc1)NCc1cccc(C(F)(F)F)c1 [Z211761694, O=C(NCc1ccc(N2CCCC2=O)cc1)NCc1cccc(C(F)(F)F)c1] | 200 | 501 | 200 | –
20 | CC(=O)CCc1ccc(OCC(=O)N2CCCC(CNC(=O)Nc3ccc(C)cc3)C2)cc1 (stereo not shown) [Z1033382608, CC(=O)CCc1ccc(OCC(=O)N2CCCC(CNC(=O)Nc3ccc(C)cc3)C2)cc1] | 398 | 3160 | 501 | –
21 | NC(=O)COc1ccc(NC(=O)NCCC(c2ccccc2)c2ccccc2)cc1 [Z339843288, NC(=O)COc1ccc(NC(=O)NCCC(c2ccccc2)c2ccccc2)cc1] | 1 | 1.26 | 1.26 | –
